# Reference: ChEMBL document CHEMBL1143584, “Synthesis of 2',3'-dideoxynucleoside 5'-alpha-P-borano-beta,gamma-(difluoromethylene)triphosphates and their inhibition of HIV-1 reverse transcriptase” (J Med Chem, 2005)
# pKi: −log10 of the molar value.
# Legend:
# [1] = target: Human immunodeficiency virus type 1 reverse transcriptase (Human immunodeficiency virus 1, UniProt Q72547); assay: Inhibitory constant against HIV-1 reverse transcriptase
# [2] = Half-life determined in fetal calf serum; assay type: ADME, Bos taurus; settings: cattle
Compound,pKi [1],half-life [2] [h]
Cc1cn([C@H]2C[C@H](F)[C@@H](COP(=O)(O)OP(=O)(O)OP(=O)(O)O)O2)c(=O)[nH]c1=O,7.15,
O=c1ccn([C@H]2CC[C@@H](COP(=O)(O)OP(=O)(O)OP(=O)(O)O)O2)c(=O)[nH]1,6.26,1
Nc1nc(=O)n([C@H]2CS[C@@H](COP(=O)(O)OP(=O)(O)OP(=O)(O)O)O2)cc1F,6.30,
NC1=NCc2c(ncn2[C@H]2CC[C@@H](COP(=O)(O)OP(=O)(O)OP(=O)(O)O)O2)C1=O,7.60,
BP(=O)(OC[C@@H]1C=C[C@H](n2cnc3c(O)nc(N)nc32)C1)OP(=O)(O)C(F)(F)P(=O)(O)O (stereo not given in full),7.47,
BP(=O)(OC[C@@H]1CC[C@H](n2ccc(N)nc2=O)O1)OP(=O)(O)C(F)(F)P(=O)(O)O (stereo not given in full),7.64,> 48
BP(=O)(OC[C@H]1O[C@@H](n2cc(C)c(=O)[nH]c2=O)C[C@@H]1F)OP(=O)(O)C(F)(F)P(=O)(O)O (stereo not given in full),7.34,
BP(=O)(OC[C@@H]1CC[C@H](n2ccc(=O)[nH]c2=O)O1)OP(=O)(O)C(F)(F)P(=O)(O)O (stereo not given in full),6.36,> 48
BP(=O)(OC[C@@H]1C=C[C@H](n2cc(C)c(=O)[nH]c2=O)O1)OP(=O)(O)C(F)(F)P(=O)(O)O (stereo not given in full),7.35,
BP(=O)(OC[C@@H]1CC[C@H](n2cnc3c(N)ncnc32)O1)OP(=O)(O)C(F)(F)P(=O)(O)O (stereo not given in full),7.33,
BP(=O)(OC[C@H]1O[C@@H](n2cc(C)c(=O)[nH]c2=O)C[C@@H]1N=[N+]=[N-])OP(=O)(O)C(F)(F)P(=O)(O)O (stereo not given in full),7.03,> 48
BP(=O)(OC[C@H]1O[C@@H](n2cc(F)c(N)nc2=O)CS1)OP(=O)(O)C(F)(F)P(=O)(O)O (stereo not given in full),5.75,
Nc1nc(O)c2ncn([C@H]3C=CC(COP(=O)(O)OP(=O)(O)OP(=O)(O)O)C3)c2n1 (stereo not given in full),7.43,
BP(=O)(OC[C@H]1O[C@@H](n2ccc(N)nc2=O)CS1)OP(=O)(O)C(F)(F)P(=O)(O)O (mixture of isomers),6.50,> 48
BP(=O)(OC[C@@H]1CC[C@H](n2cc(C)c(=O)[nH]c2=O)O1)OP(=O)(O)C(F)(F)P(=O)(O)O (mixture of isomers),6.63,
"BP(=O)(OC[C@@H]1CC[C@H](n2cnc3c(O)nc(N)cc32)O1)OP(=O)(O)C(F)(F)P(=O)(O)O (single isomer, unassigned; diastereomer I)",7.15,
Nc1ncnc2c1ncn2[C@H]1CC[C@@H](COP(=O)(O)OP(=O)(O)OP(=O)(O)O)O1 [DDA-TRIPHOSPHATE],7.70,
Nc1ccn([C@H]2CC[C@@H](COP(=O)(O)OP(=O)(O)OP(=O)(O)O)O2)c(=O)n1 [DDCTP],,0.8
Cc1cn([C@H]2C[C@H](O)[C@@H](COP(=O)(O)OP(=O)(O)OP(=O)(O)O)O2)c(=O)[nH]c1=O [DEOXYTHYMIDINE_TRIPHOSPHATE],7.21,
Nc1ccn([C@@H]2CS[C@H](COP(=O)(O)OP(=O)(O)OP(=O)(O)O)O2)c(=O)n1 [LAMIVUDINE TRIPHOSPHATE],6.73,3
Cc1cn([C@H]2C=C[C@@H](COP(=O)(O)OP(=O)(O)OP(=O)(O)O)O2)c(=O)[nH]c1=O [STAVUDINE TRIPHOSPHATE],7.25,
Nc1ccn([C@H]2CC[C@@H](CO)O2)c(=O)n1 [ZALCITABINE],7.29,
Cc1cn([C@H]2C[C@H](N=[N+]=[N-])[C@@H](CO[P@](=O)(O)O[P@](=O)(O)OP(=O)(O)O)O2)c(=O)[nH]c1=O [ZIDOVUDINE TRIPHOSPHATE],7.04,2
